# Like-named read-outs stand apart in the source and are kept apart here.
# What was measured:
# MCF-7 Br Ca cell line = assay: MTT cytotoxicity (antiproliferative) assay
# Description: Cytotoxic activity evaluation
# To measure the cytotoxic actvity of the synthesized naphthalen-1-yloxyacetamide
# tethered acrlamide derivatives 5a-j and 6a,b in breast adenocarcinoma (MCF-7) cell line
# (ATCC Cat. No. HTB-22). Cell viability assay was assessed using MTT assay method.
# Cells at density of 1 x 104 were seeded in a 96-well plate at 37 °C for 24 h under 5%
# CO2. After incubation, the cells were treated with different concentrations of the
# investigated naphthalen-1-yloxyacetamide tethered acrlamide derivatives 5a-j and 6a,b
# and incubated for 24 h, then 20 l of MTT solution at 5 mg/mL was applied and
# incubated for 4 h at 37 °C. Dimethyl sulphoxide (DMSO) in volume of 100 µl was
# added to each well to dissolve the purple formazan that had formed. The color intensity
# of the formazan product, which represents the growth condition of the cells, is quantified
# by using an ELISA plate reader (EXL 800, USA) at 570 nm absorbance. The experimental conditions were carried out with at least three replicates, and the experiments were repeated at least three times.
# aromatase enzyme = molecular target: T1, aromatase enzyme (Homo sapiens, UniProt P11511); assay: Aromatase inhibition assay (ELISA method kit); assay type: biochemical; details: five concentrations
# T1 construct: IC50 values against aromatase enzyme in MCF-7 Br Ca cells treated with; endogenous in cells; host or cells: MCF-7
# T1 sequence (P11511 1-503): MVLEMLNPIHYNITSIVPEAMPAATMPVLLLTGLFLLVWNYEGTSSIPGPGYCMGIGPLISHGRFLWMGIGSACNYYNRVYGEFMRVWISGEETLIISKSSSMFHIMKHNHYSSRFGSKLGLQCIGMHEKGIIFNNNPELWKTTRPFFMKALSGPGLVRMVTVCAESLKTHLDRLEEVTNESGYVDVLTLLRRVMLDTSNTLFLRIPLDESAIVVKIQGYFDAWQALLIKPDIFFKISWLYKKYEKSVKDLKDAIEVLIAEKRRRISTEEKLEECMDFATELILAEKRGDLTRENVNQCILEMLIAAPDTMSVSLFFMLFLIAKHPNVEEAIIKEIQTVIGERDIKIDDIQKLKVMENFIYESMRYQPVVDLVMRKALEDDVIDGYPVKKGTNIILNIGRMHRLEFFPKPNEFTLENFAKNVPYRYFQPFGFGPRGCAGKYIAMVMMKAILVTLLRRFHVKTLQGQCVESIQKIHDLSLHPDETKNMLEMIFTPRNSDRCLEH
# MCF-7 Br Ca cells [1] = assay: DNA flow cytometry cell cycle analysis; assay type: cell-based; details: MCF-7, at the IC50 value for 48 h
# Description: It is frequently utilized in cell biology to comprehend growth regulation, cell proliferation and the impact of both drugs and genetic alterations on cellular division.[44] Recognizing and manipulating the phase at which cell cycle arrest occurs can improve the therapeutic efficacy and selectivity of chemotherapeutic drugs, as many cancer therapies target rapidly proliferating cells.[45] The most cytotoxic naphthalen-1-yloxyacetamide-tethered acrylamide conjugate, 5d, was chosen in order to further assess its impact on the advancement on cell cycle in MCF-7 Br Ca cells. […] There was also a control experiment that receives no treatment. According to Flow cytometric study, naphthalen-1-yloxyacetamide-tethered acrylamide conjugate 5d treatment causes a G1 stoppage that is almost 1.4-times greater than that of the control (Fig. 4).
# S4.2.3. Cell cycle analysis of compound 5d
# Cell cycle analysis in MCF-7 cells was investigated using fluorescent Annexin V-FITC/ PI detection kit (BioVision EZCellTM Cell Cycle Analysis Kit Catalog #K920) by flow […]
# washed twice in PBS. After that, the cells were incubated at 37 °C and 5% CO2. The […]
# twice in PBS, fixed with 70% ethanol, rinsed again with PBS. Afterward, medium was stained with DNA fluorochrome PI for 15 min at 37 °C. The samples were immediately analyzed using Facs Calibur flow cytometer (Becton and Dickinson, Heidelberg, […]
# S4.2.4. […]
# MCF-7 Br Ca cells [2] = assay: FITC-Annexin V/PI apoptosis assay; assay type: cell-based; details: MCF-7, 48 h
# Bax = Bax level assay in MCF-7 cells; assay type: cell-based; details: MCF-7, qRT-PCR technique (SI: ELISA kit), IC50 concentration
# Description: (§1) Programmed cell death, or apoptosis, is a complex series of biochemical processes.[50] Pro-apoptotic proteins include Bad, Bax, Bid and Bim, while anti-apoptotic members include Bcl-2 and Bc-LXI.[51,52] The anti-apoptotic proteins prevent cytochrome-c from release, which inhibits apoptosis, while pro-apoptotic members activate the release of cytochrome-c.[53] When there is a higher ratio of pro-apoptotic proteins than anti-apoptotic ones, the outer mitochondrial membrane becomes permeable leading to a cascade of events.[54] The cytochrome-c is released, which activates caspase 9, which in turn triggers caspase 3, which triggers apoptotic processes.[55] […] According to the data, the tested compound's Bax gen level increased noticeably compared with control. […]
# (§2) Annexin V-FITC/ PI dye for 15 min in the dark at 37 °C. The samples were immediately analyzed using FACS Calibur flow cytometer (Becton and Dickinson, Heidelberg, […]
# (§3) Bcl-2, Bax and Caspase 9 activities in MCF-7 Br Ca cells were detected in the presence of conjugate 5d at the IC50 concentration (µM). The levels of anti-apoptotic marker Bcl-2, apoptotic markers Bax as well as Caspase 9 were assessed using appropriate ELISA kit. […]
# (§4) with IC50 concentration of compound 5d. […] The samples were measured at 450 nm in ROBONEK P2000 ELISA reader. […]
# Bcl-2 = Bcl-2 level assay in MCF-7 cells; assay type: cell-based; details: MCF-7, qRT-PCR technique (SI: ELISA kit), IC50 concentration
# Description: as §1, §2, §3, §4
# caspase 9 = assay: Caspase 9 level assay in MCF-7 cells; assay type: cell-based; details: MCF-7, qRT-PCR technique (SI: ELISA kit), IC50 concentration
# Description: An essential initiator caspase in the intrinsic apoptotic process is caspase 9.[56] It is essential for inducing cell death in response to internal stress such as oxidative stress, DNA damage, or oncogene activation conditions, which are frequently present in cancer cells.[57] Therefore, therapeutic strategies that enhance or restore its activity can potentially overcome apoptosis resistance in tumors.[58] In this context, naphthalene-1-yloxyacetamide tethered acrylamide conjugate 5d were evaluated as caspase 9 activator against MCF-7 cells using qRT-PCR technique. […] It is worth mentioning that, the level of caspase 9 protein level is increased 8.2-fold more than the negative control.
# Apoptosis in MCF-7 cells was investigated using fluorescent Annexin V-FITC/ PI detection kit (BioVision Annexin V-FITC Apoptosis Detection Kit, Catalog #: K101) by […]
# as §2
# 6. […]
# as §3, §4
# aromatase = molecular target: aromatase; parameters: method as in PMID 31416738; details: cited from earlier work
# [3] = Homo sapiens, MCF7, read-out: IC50 MCF-7, MTT, MCF-7 Br Ca cell line, mean ± SD (n = 3)
smiles,measurement,setting,value
"COc1ccc(/C=C(\NC(=O)c2ccccc2)C(=O)NNC(=O)COc2cccc3ccccc23)cc1OC [5f, (Z)-N-(1-(3,4-Dimethoxyphenyl)-3-(2-(2-(naphthalen-1-yloxy)acetyl)hydrazineyl)-3-oxoprop-1-en-2-yl)benzamide]",IC50,MCF-7 Br Ca cell line; [3],28.7 ± 1.45 µM
"COc1ccc(C(=O)N/C(=C\c2cc(OC)c(OC)c(OC)c2)C(=O)NNC(=O)COc2cccc3ccccc23)cc1 [5j, (Z)-4-Methoxy-N-(3-(2-(2-(naphthalen-1-yloxy)acetyl)hydrazineyl)-3-oxo-1-(3,4,5-trimethoxyphenyl)prop-1-en-2-yl)benzamide]",IC50,MCF-7 Br Ca cell line; [3],21.2 ± 0.92 µM
"COc1ccc(C(=O)N/C(=C\c2ccco2)C(=O)NNC(=O)COc2cccc3ccccc23)cc1 [6b, (Z)-N-(1-(Furan-2-yl)-3-(2-(2-(naphthalen-1-yloxy)acetyl)hydrazineyl)-3-oxoprop-1-en-2-yl)-4-methoxybenzamide]",IC50,MCF-7 Br Ca cell line; [3],11.5 ± 0.76 µM
"O=C(COc1cccc2ccccc12)NNC(=O)/C(=C/c1ccc([N+](=O)[O-])cc1)NC(=O)c1ccccc1 [5c, (Z)-N-(3-(2-(2-(Naphthalen-1-yloxy)acetyl)hydrazineyl)-1-(4-nitrophenyl)-3-oxoprop-1-en-2-yl)benzamide]",IC50,aromatase enzyme,0.143 µM
"COc1ccc(/C=C(\NC(=O)c2ccccc2)C(=O)NNC(=O)COc2cccc3ccccc23)cc1 [5d, (Z)-N-(1-(4-methoxyphenyl)-3-(2-(2-(naphthalen-1-yloxy)acetyl)hydrazineyl)-3-oxoprop-1-en-2-yl)benzamide]",IC50,aromatase enzyme,0.078 µM
same,G1 stoppage relative to control,MCF-7 Br Ca cells [1],~1.4 times
same,early apoptosis fold increase vs control,MCF-7 Br Ca cells [2],33.6 fold
same,late apoptosis fold increase vs control,MCF-7 Br Ca cells [2],42.0 fold
same,late apoptotic cells percentage,"MCF-7 Br Ca cells [2]; IC50 concentration, control untreated 0.14%",5.88%
same,early apoptosis percentage,"MCF-7 Br Ca cells [2]; IC50 concentration, no treatment control 0.57%",19.17%
same,Bax level fold vs untreated MCF-7 cells,Bax,4.0 fold
same,Bcl-2 gene level factor vs negative control,Bcl-2,0.3
same,caspase 9 level fold vs negative control,caspase 9,8.2 fold
same,IC50,MCF-7 Br Ca cell line; [3],3.03 µM
same,IC50,"MCF-7 Br Ca cell line; read-out: IC50 MCF-7, MTT, MCF-7 Br Ca cell line, mean ± SD (n = 3)",2.33 ± 0.1 µM
"CN(C)c1ccc(/C=C(\NC(=O)c2ccccc2)C(=O)NNC(=O)COc2cccc3ccccc23)cc1 [5e, (Z)-N-(1-(4-(Dimethylamino)phenyl)-3-(2-(2-(naphthalen-1-yloxy)acetyl)hydrazineyl)-3-oxoprop-1-en-2-yl)benzamide]",IC50,aromatase enzyme,0.093 µM
"O=C(COc1cccc2ccccc12)NNC(=O)/C(=C/c1ccc(Br)cc1)NC(=O)c1ccccc1 [5b, (Z)-N-(1-(4-Bromophenyl)-3-(2-(2-(naphthalen-1-yloxy)acetyl)hydrazineyl)-3-oxoprop-1-en-2-yl)benzamide]",IC50,MCF-7 Br Ca cell line; [3],30.7 ± 1.18 µM
"O=C(COc1cccc2ccccc12)NNC(=O)/C(=C/c1ccc(Cl)cc1)NC(=O)c1ccccc1 [5a, (Z)-N-(1-(4-Chlorophenyl)-3-(2-(2-(naphthalen-1-yloxy)acetyl)hydrazineyl)-3-oxoprop-1-en-2-yl)benzamide]",IC50,MCF-7 Br Ca cell line; [3],51.8 ± 1.51 µM
"O=C(COc1cccc2ccccc12)NNC(=O)/C(=C/c1ccco1)NC(=O)c1ccccc1 [6a, (Z)-N-(1-(Furan-2-yl)-3-(2-(2-(naphthalen-1-yloxy)acetyl)hydrazineyl)-3-oxoprop-1-en-2-yl)benzamide]",IC50,MCF-7 Br Ca cell line; [3],9.18 ± 0.66 µM
O=S(=O)(NCc1cccc(CNS(=O)(=O)c2ccc3ccccc3c2)c1)c1ccc2ccccc2c1 [IV],IC50,aromatase,0.21 µM
"COc1ccc(/C=C(\NC(=O)c2ccccc2)C(=O)NNC(=O)COc2cccc3ccccc23)c(OC)c1OC [5h, (Z)-N-(3-(2-(2-(Naphthalen-1-yloxy)acetyl)hydrazineyl)-3-oxo-1-(2,3,4-trimethoxyphenyl)prop-1-en-2-yl)benzamide]",IC50,MCF-7 Br Ca cell line; [3],25.9 ± 1.41 µM
"COc1cc(/C=C(\NC(=O)c2ccccc2)C(=O)NNC(=O)COc2cccc3ccccc23)cc(OC)c1OC [5i, (Z)-N-(3-(2-(2-(Naphthalen-1-yloxy)acetyl)hydrazineyl)-3-oxo-1-(3,4,5-trimethoxyphenyl)prop-1-en-2-yl)benzamide]",IC50,MCF-7 Br Ca cell line; [3],16.9 ± 0.82 µM
"O=C(COc1cccc2ccccc12)NNC(=O)/C(=C/c1cc(Br)c(O)c(Br)c1)NC(=O)c1ccccc1 [5g, (Z)-N-(1-(3,5-Dibromo-4-hydroxyphenyl)-3-(2-(2-(naphthalen-1-yloxy)acetyl)hydrazineyl)-3-oxoprop-1-en-2-yl)benzamide]",IC50,MCF-7 Br Ca cell line; [3],18.5 ± 1.26 µM
